For orientation: MIC means the lowest concentration found to suppress growth. Higher therefore signals a need for much substance.

The subject of test [1] is Mycobacterium tuberculosis. In words: Antimycobacterial activity against Mycobacterium tuberculosis. The class given is functional.
Test [2] relates to Mycobacterium tuberculosis. In words: Antimycobacterial activity against Mycobacterium tuberculosis H37Rv ATCC 27294 by Alamar blue assay. The class given is functional, organism-based. For orientation: Alamar Blue is a resazurin reagent that responds to reducing activity.

≈ marks a conversion by molar mass, not a printed value. Calls of active or inactive are those of the source. The rule behind the calls is not given here.

The molecule `CC1(C)CC[C@]2(C(=O)O)CC[C@]3(C)C(=CC[C@@H]4[C@@]5(C)CC[C@H](O)C(C)(C)[C@@H]5CC[C@]43C)[C@@H]2C1` [OLEANOLIC_ACID] returned an MIC in test [1] of 29 µg/mL (≈ 63.5 µM).
`C=C(C)[C@@H]1CC[C@]2(C(=O)O)CC[C@]3(C)[C@H](CC[C@@H]4[C@@]5(C)CC[C@H](O)C(C)(C)[C@@H]5CC[C@]43C)[C@@H]12` [BETULINIC ACID] had an MIC in test [1] of 62 µg/mL (≈ 136 µM).
Molecule `C=C(C)[C@@H]1CC[C@]2(C(=O)O)CC[C@]3(C)[C@H](CC[C@@H]4[C@@]5(C)CC[C@@H](O)[C@@](C)(C(=O)O)[C@@H]5CC[C@]43C)[C@@H]12` gave an MIC in test [1] of 54 µg/mL (≈ 111 µM). Besides, the result in test [2] was Active.
Turning to `CC1(C)CC[C@]2(C(=O)O)CC[C@]3(C)C(=CC[C@@H]4[C@@]5(C)CC[C@@H](O)[C@@](C)(C(=O)O)[C@@H]5CC[C@]43C)[C@@H]2C1`, the result in test [2] was Active.
